Data: US10016383B2, “Inhibitors of metallo-β-lactamase-enzymes” (McMaster University, priority 2013, dated 2018)
Where two headings read alike, the source gives them in different places.

Experiments:
[1] = rats, i.v.; cited from earlier work
K. pneumoniae N11-2218 [2] = experiment: Microdilution checkerboard / MIC; type: cell-based, Klebsiella pneumoniae; conditions: meropenem alone
Protocol: FIC values were determined by standard methods^27 setting up checkerboards with 8 concentrations of each meropenem and AM-A in serial ½ dilutions. Experiments were done in duplicate and the mean used for calculation. The MIC for each compound was the lowest concentration of compound showing no growth. The FIC for each compound was calculated as the concentration of the compound in the presence of co-compound for a well showing no growth, divided by the MIC for that compound. The FIC index is the sum of the two FICs.

K. pneumoniae N11-2218 [3] = experiment: Mouse systemic infection, organ bacterial load; type: in vivo, CD1 mice; conditions: meropenem alone, doses below 50 mg/kg
Source text: (§1) All animals were housed in specific pathogen-free units in the Central Animal Facility at McMaster University. All experimental protocols were approved by, and performed in accordance with the McMaster Animal Research Ethics Board. Female CD1 mice were purchased from Charles River.
(§2) Mice were infected intraperitoneally (ip) with a dose of 2×10^6 colony forming units (cfu) of Klebsiella pneumoniae N11-2218 for all organ bacterial load experiments, or with a dose of 5×10^7cfu for all survival experiments. For all organ bacterial load experiments, mice were euthanized 48 hours post infection, and spleen and liver were harvested. Organs were placed into 1 mL sterile PBS on ice, and then homogenized (Mixer Mill 400; Retsch). Organ homogenates were then serially diluted in PBS, and plated on Brilliant Green agar (Oxoid) for cfu enumeration. For survival curves, mice were monitored for endpoint. For all experiments, mice were treated 30 minutes post infection with a specified subcutaneous dose of either PBS, meropenem, AM-A inhibitor, or a combination of both antibiotic and inhibitor.

K. pneumoniae N11-2218 [4] = experiment: Mouse lethal systemic infection, survival; type: in vivo, CD1 mice; conditions: monotherapy (alone)
Source text: as §1, §2

Compound | LD50 [1] | MIC (K. pneumoniae N11-2218 [2]; Klebsiella pneumoniae, N112218, read-out: MIC) | MIC (K. pneumoniae N11-2218 [2]) | response of infection to meropenem monotherapy (K. pneumoniae N11-2218 [3]) | prevention of lethal infection (K. pneumoniae N11-2218 [4])
O=C(O)CN[C@H](CN[C@@H](CC(=O)O)C(=O)O)C(=O)O [AM-B, aspergillomarasime B] | 660 mg/kg | – | – | – | –
C[C@@H](O)[C@H]1C(=O)N2C(C(=O)O)=C(S[C@@H]3CN[C@H](C(=O)N(C)C)C3)[C@H](C)[C@H]12 [meropenem, reference compound] | – | 32 µg/mL | 32 µg/mL | resistant | unable to prevent lethal infection
